For data set [1], the target named is T1, cysteine protease LmCPB2.8∆CTE (CPB) (Leishmania mexicana, UniProt P36400). Conditions: irreversible inhibitor ref 13; cited from earlier work.
Data set [2] is described as follows: cytotoxic activity on peritoneal macrophages. Conditions: Swiss, mouse. It is filed as cell-based, Swiss mice. The procedure:
For the anti-promastigote assays, L. infantum and L. amazonensis cultures in the exponential growth phase were transferred to 96-well plates at a final concentration of 1 × 10^7 promastigotes mL^−1. […] After 72 h, viable promastigotes were determined using the MTT method.
(§1) Anti-promastigote and anti-amastigote assays, the infection index (percentage of infected cells * number of intracellular parasites/numbers of infected cells), and their cytotoxic activity were conducted as previously described.

Data set [3] has as its system L. amazonensis promastigotes. As to the kind of experiment: microbe, parasite or virus in culture. Conditions: for IC50: read-out: Promastigote IC50 L. amazonensis in active serum. An excerpt: (§2) Several strategies were employed to increase the stability of peptides, including the incorporation of non-natural amino acids, modifications of the N- and/or C-terminal, cyclization, the use of non-peptide structures (peptidomimetics), and multimerization.

The subject of data set [4] is L. infantum promastigotes. The data set is described as follows: microbe, parasite or virus in culture. Particulars: for IC50: read-out: Promastigote IC50 L. infantum in active serum.
Excerpt: as §2

In data set [5] the test system is L. infantum promastigotes. As to the kind of experiment: anti-promastigote assay (MTT) against L. infantum. Format: cell-based, Leishmania infantum. Particulars: 72 h. The procedure:
(§3) L. amazonensis promastigotes (MPRO/BR/1972/M1841-LV-79) were grown in LIT culture medium, while L. infantum promastigotes (MNYC/BZ/62/M379) were cultivated in 199 culture medium (Sigma-Aldrich, St. Louis, MO, USA) supplemented with 10% heat-inactivated fetal bovine serum (FBS; Gibco/Invitrogen) and in 10% urine, at 28 °C, until reaching the mid-log phase of growth. Macrophages were sourced from the peritoneal cavity of Swiss mice, using the methodology outlined by de Almeida et al. 2017 [60]. For the anti-promastigote assays, L. infantum and L. amazonensis cultures in the exponential growth phase were transferred to 96-well plates at a final concentration of 1 × 10^7 promastigotes mL^−1. Subsequently, the tested compounds were added at concentrations ranging from 1.28 to 100 µmol L^−1 to assess their anti-promastigote activity. After 72 h, viable promastigotes were determined using the MTT method.
as §1

Data set [6] has as its system L. amazonensis promastigotes. The data set is described as follows: anti-promastigote assay (MTT) against L. amazonensis. Conditions: 72 h. Format: cell-based, Leishmania amazonensis. The procedure: as §3, §1
The subject of data set [7] is L. amazonensis intracellular amastigotes. Format: cell-based, Leishmania amazonensis. The procedure:
as §1

In data set [8] the test system is L. infantum intracellular amastigotes. It is filed as cell-based, Leishmania infantum. The procedure: as §1
Data set [9] concerns the target T1, cysteine protease LmCPB2.8∆CTE (CPB). The data set is described as follows: cysteine protease (CPB) enzyme inhibition assay. It is filed as biochemical, Leishmania major. Conditions: for inhibition at 20 µM: read-out: CPB Inhibitory Activity 20 μM, 20 μM. The procedure: CPB inhibition experiments were performed as described previously by Moreira et al. 2022 [13]. The results were expressed as mean ± standard deviation of two independent replicates.

The conditions of data set [10]: eukaryotic membrane mimetic POPC/cholesterol, 50 μM.
Procedure: As illustrated in Figure 5 and Figure 6, the analyte in question (peptide, bioconjugate, or guanidine) was added within 120 s, and after an interval of 360 s, the behavior of the membrane mimetic was reanalyzed. After this time, 10% triton was added so that the vesicles could completely release the carboxyfluorescein.
Large unilamellar vesicles (LUVs) composed of POPC (1-palmitoyl-2-oleoyl-sn-glycero-3-phosphatidylcholine) and cholesterol (Chol) (4:1) or POPC, POPS (1-palmitoyl-2-oleoyl-sn-glycero-3-serine), and ergosterol (Erg) (8:1:1) were prepared according to the methods described by Lorenzón et al. 2014 [62].
The target of a further data set is cathepsin B. Details: method as in PMID 12574338. Conditions: cited from earlier work.
Where [11] appears, read: peritoneal macrophages, Table 1 (L. amazonensis series).
Where [12] appears, read: peritoneal macrophages, Table 2 (L. infantum series).
Where [13] appears, read: culture medium with active fetal bovine serum.

Where “and” joins values, the source holds several entries; their conditions need not be identical. Identical values can stand only once. Residues, ends and D or L forms follow the SMILES beside them. *: point of attachment. X1 = O=C(/N=C(/NCc1ccc(C(=O)*)cc1)Nc1ccc(Br)cc1)c1ccccc1; code Z = not defined here

The CC50 is the concentration that lowers cell viability or growth by half. Read a low CC50 as greater toxicity to the cells. By IC50 is commonly meant the concentration that gives 50% inhibition. By Ki is commonly meant a dissociation constant, usually derived from enzyme kinetics or from competition with a known ligand.

T1 sequence (P36400 126-343): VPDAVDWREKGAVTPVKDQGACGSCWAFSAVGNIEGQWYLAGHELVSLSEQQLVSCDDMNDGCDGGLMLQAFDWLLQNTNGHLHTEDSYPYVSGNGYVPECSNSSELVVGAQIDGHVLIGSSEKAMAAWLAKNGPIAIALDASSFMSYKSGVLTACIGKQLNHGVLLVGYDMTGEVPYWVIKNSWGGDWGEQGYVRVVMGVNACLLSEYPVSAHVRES

Turning to `CC(C)C[C@H](NC(=O)[C@H]1O[C@@H]1C(=O)O)C(=O)NCCCCN=C(N)N` (relative stereo) [Compound E64, L-trans-epoxysuccinyl-leucylamido-(4-guanidino)butane], the “inhibition of Leishmania CPB (potency range)” value in data set [1] is listed as “nanomolar range”.

With `C[C@@H]1[C@H](O)[C@@H](C)/C=C/C=C/C=C/C=C/C=C/C=C/C=C/[C@H](O[C@@H]2O[C@H](C)[C@@H](O)[C@H](N)[C@@H]2O)C[C@@H]2O[C@](O)(C[C@@H](O)C[C@@H](O)[C@H](O)CC[C@@H](O)C[C@@H](O)CC(=O)O[C@H]1C)C[C@H](O)[C@H]2C(=O)O` [Amp B, Amphotericin B, reference compound], the CC50 in data set [2] (setting [11]) stood at 0.0998 ± 0.0037 mM. In addition, the results for the IC50 in [3] (Leishmania amazonensis) and in data set [4] (Leishmania infantum) were 500 ± 100 nM and 300 ± 100 nM, respectively.

Take `O=C(O)c1ccc(CN/C(=N/C(=O)c2ccccc2)Nc2ccc(Br)cc2)cc1` [GVL1, (Z)-4-((2-benzoyl-3-(4-bromophenyl)guanidino)methyl) benzoic acid]: the results for the CC50 in data set [2] (Table 1 (L. amazonensis series)) and in data set [2] (setting [12]) were > 1 mM and > 2 mM, respectively. Moreover, the half-maximal inhibitory concentration (IC50) in data set [5] (Leishmania infantum) is 50.8 ± 2.2 µM; in data set [3] (Leishmania amazonensis) it was 65000 ± 2400 nM; in data set [4] (Leishmania infantum), 50000 ± 1200 nM.

Take `N=C(N)NCCC[C@H](NC(=O)[C@H](CCCNC(=N)N)NC(=O)[C@H](CCC(N)=O)NC(=O)[C@H](CCCNC(=N)N)NC(=O)[C@H](CCCNC(=N)N)NC(=O)[C@H](CCCCN)NC(=O)[C@H](CCCCN)NC(=O)[C@H](CCCNC(=N)N)NC(=O)CNC(=O)[C@H](Cc1ccc(O)cc1)NC(=O)c1ccc(CN/C(=N/C(=O)c2ccccc2)Nc2ccc(Br)cc2)cc1)C(=O)O` [GVL1-TAT] (X1-YGRKKRRQRR-OH): the half-maximal inhibitory concentration (IC50) in [6] is 5.3 µM and 5.32 µM; in [7] (read-out: Amastigote IC50), 800 ± 60 nM; in data set [5] it was 1.2 ± 0.3 µM; in data set [8] (read-out: Amastigote IC50), 3.8 ± 0.3 µM; in [3] (setting [13]) it was 2600 ± 800 nM; in [4] (setting [13]) it was 1200 ± 300 nM. In addition, the IC50 in data set [9] came out at 3.78 ± 0.1 µM. Besides, the CC50 in [2] (setting [11]) is > 1 mM; in data set [2] (setting [12]), > 2 mM. The inhibition at 20 µM in data set [9] is ~92%. Also, the “permeabilization of vesicles (carboxyfluorescein release)” value in data set [10] is on record as “no damage was observed in the vesicles”.

`N=C(N)NCCC[C@H](NC(=O)[C@H](CCCNC(=N)N)NC(=O)[C@H](CCC(N)=O)NC(=O)[C@H](CCCNC(=N)N)NC(=O)[C@H](CCCNC(=N)N)NC(=O)[C@H](CCCCN)NC(=O)[C@H](CCCCN)NC(=O)[C@H](CCCNC(=N)N)NC(=O)CNC(=O)[C@@H](N)Cc1ccc(O)cc1)C(=O)O` [TAT, reference compound] (H-YGRKKRRQRR-OH; N-terminus assumed): the “Promastigote IC50” value in data set [6] was “no activity”; in [5], “no leishmanicidal activity”. Also, the CC50 in data set [2] (setting [11]) was > 1 mM; in data set [2] (setting [12]), > 2 mM. Moreover, the “Amastigote IC50” value in [7] is listed as “no activity”; in data set [8], “no leishmanicidal activity”. Moreover, the “Promastigote IC50 L. amazonensis in active serum” value in data set [3] (setting [13]) is listed as “did not display anti-promastigote activity”. In addition, the “Promastigote IC50 L. infantum in active serum” value in data set [4] (setting [13]) is reported as “did not display anti-promastigote activity”. Moreover, the inhibition at 20 µM in [9] was determined as 9.42 ± 0.01%.

On to “Z-Arg-Leu-Val-Gly-Ile-Val-Ome ({code Z}-RLVGIV-OMe; reading uncertain; also: printed as Z-Arg-Leu-Val-Gly-Ile-Val-Ome)”, for which, on cathepsin B, the Ki is 0.088 nM.
